# Source: patent EP0833161A1, “Method for maintaining a continuously-saturated level of ascorbic acid in a patient's body” (Ordman, Alfred B., priority 1996, dated 1998)
# What was measured:
# [1] = Effect of single daily dose of vitamin C on total 24-hour urinary excretion (DCIP assay); format: in vivo, human
# Description: In order to determine how daily dosages related to total excretion and whether high daily doses would alter the rate of excretion after a week, groups of test subjects took either 0, 0.25, 1, or 2 gram doses of vitamin C at 8 am daily for 8 consecutive days. All urine was collected and pooled on day 1 and on day 8. The concentration was assayed and the total amount of vitamin C excreted during the 24-hour period was determined, as shown in Fig. 1.
# (§1) Vitamin C was assayed by the 2,6-dichlorophenolindophenol (DCIP) assay (see Omaye, T. S. et al. "Selected Methods for the Determination of Ascorbic Acid in Animal Cells," in Methods Enzymol.: Vitamins and Coenzymes, Vol. 62, edited by McCormick, D. B. and L. D. Wright, New York, Academic Press, 1979, pp. 3-11). Samples diluted to 0-40 µg ascorbic acid with 5% phosphoric acid were assayed in a citrate/acetate buffer by reaction with DCIP, and the color at 520 nm compared with standards. Samples were assayed in duplicate and each experiment was repeated.
# Vitamin C was administered daily to five individuals at 8 am for eight consecutive days. All urine for each individual was collected during the first and last 24-hour periods and the total amount of vitamin C excreted in the urine was determined by DCIP assay.
# [2] = Rate of urinary excretion of a single daily dose of vitamin C, every micturition assayed (DCIP assay); format: in vivo, human
# Description: In order to determine how rapidly vitamin C is excreted, several individuals took 2 grams of vitamin C daily (single dose) for 8 consecutive days, and collected samples and measured the volume of every micturition during the first and last day. The experiment was repeated with the same individuals after a seven-day rest. Each sample was analyzed to determine the time period, concentration range, and total urinary excretion of vitamin C. The results arc shown in Fig. 2 for three representative individuals. Vitamin C concentration in the urine increased after 4 hours from time of intake and remained elevated for a total of 12 hours, consistent with the hypothesis that vitamin C levels in the body are not elevated for an entire 24 hour period by a single daily dose.
# as §1
# Fig. 2 illustrates the effect of two grams of daily single-dose vitamin C taken orally for eight days, followed by six days with no intake, and then by eight more days of two grams taken daily in a single dose. Each micturition during the first and last 24 hours of each eight-day period was collected and assayed to determine the total mass of vitamin C excreted. Figures 2a-2c represent excretion from three different individuals.
# [3] = Effect of twice-daily doses of vitamin C on urinary output (DCIP assay); format: in vivo, human; details: for urinary excretion: one individual
# Description: Twice-daily doses of 500 mg were sufficient to elevate vitamin C in the urine continuously as shown for 5 individuals in Fig. 4.
# as §1
# In order to achieve such sustained presence of vitamin C in urine, it is instead necessary to take it at least twice daily, as shown in Fig. 3. Different dosages (from 0.25 to 2.0 grams) of vitamin C were administered to a representative subject every 12 hours, at times 0 and 12 hour in the figure, on four separate days of a four week period. The mass of vitamin C present in the urine was measured at every micturition. The individual was tested one day of the week for four consecutive weeks with progressively increasing dosages followed by six-day periods of rest. As illustrated by the figure, taking at least 500 mg twice daily led to continuously elevated levels of vitamin C in the urine tested.
# Each micturition during the entire 24 hours was collected and the total mass of vitamin C excreted by each subject was measured by the DCIP assay. In yet another experiment, two daily doses of 0.5 grams of vitamin C were taken daily for 8 days, then no pills were taken for a week, and then 0.5 g daily were taken again for another 8 days. Each micturition during the first and last 24 hr of each 8 day period was collected and assayed to determine the total mass of vitamin C excreted.
# [4] = 500 mg dose, average person, within the first 12 hr after ingestion; cited from earlier work
compound,measurement,setting,value
"O=C1O[C@H]([C@@H](O)CO)C(O)=C1O [vitamin C, ascorbic acid]",rate of urinary excretion versus daily dose,"[1]; 0, 0.25, 1 or 2 gram doses at 8 am daily, 24-hour pooled urine",increased with increasing daily doses
same,intake rate at which a consistently elevated urinary level (greater than SD) begins,[1]; in vivo,250-500 mg per day
same,one-time dose necessary for detectable excretion,[1]; in vivo,500 mg
same,vitamin C levels in urine,[1]; in vivo,no detectable vitamin C levels in urine
same,amount excreted on day 8 compared with day 1,"[1]; single daily dose for 8 consecutive days, 24-hour pooled urine",similar
same,share of ingested vitamin C detected in the urine,"[2]; 2 grams daily, single dose",only a small percentage
same,"excretion pattern, first versus last day","[2]; 2 grams daily, single dose, 8 consecutive days",No noticeable difference
same,time from intake after which vitamin C concentration in the urine increased,[2]; in vivo,4 h
same,total time vitamin C concentration in the urine remained elevated,[2]; in vivo,12 h
same,urinary excretion,[3]; 250 mg every 12 hours,did not cause detectable excretion in amounts exceeding normal quantities
same,urinary excretion,[3]; 500 mg or higher (up to 2000 mg) every 12 hours,continuously-detectable elevated levels of excretion
same,vitamin C in the urine,"[3]; 500 mg twice daily for a week, first and last day",remains continuously elevated
same,fraction of dose absorbed into the body,[4],about 60%
